Tests used:
Format in all cases: in vivo
Conditions in all cases: 1000 g/h, after 13 days
[1] = tested on: Lolium perenne (LOLPE); assay: Further testing, pre-emergence application
Method: (§1) Seeds of a variety of test species are sown in standard soil in pots (Lolium perenne (LOLPE), Solanum nigrum (SOLNI), Amaranthus retoflexus (AMARE), Setaria faberi (SETFA), Echinochloa crus-galli (ECHCG), Ipomoea hederacea (IPOHE)). After cultivation for one day (pre-emergence) or after 8 days cultivation (post-emergence) under controlled conditions in a glasshouse (at 24/16° C., day/night; 14 hours light; 65% humidity), the plants are sprayed with an aqueous spray solution derived from the formulation of the technical active ingredient in acetone/water (50:50) solution containing 0.5% Tween 20 (polyoxyethelyene sorbitan monolaurate, CAS RN 9005-64-5). Compounds are applied at 1000 g/h unless otherwise stated. The test plants are then grown in a glasshouse under controlled conditions in a glasshouse (at 24/16° C., day/night; 14 hours light; 65% humidity) and watered twice daily. After 13 days for pre and post-emergence, the test is evaluated for the percentage damage caused to the plant. The biological activities are shown in the following table on a five point scale (5=80-100%; 4=60-79%; 3=40-59%; 2=20-39%; 1=0-19%).

[2] = tested on: Echinochloa crus-galli (ECHCG); assay: Further testing, pre-emergence application
Method: as §1

[3] = tested on: Setaria faberi (SETFA); assay: Further testing, pre-emergence application
Method: as §1

[4] = tested on: Solanum nigrum (SOLNI); assay: Further testing, pre-emergence application
Method: as §1

[5] = tested on: Amaranthus retoflexus (AMARE); assay: Further testing, pre-emergence application
Method: as §1

[6] = tested on: Ipomoea hederacea (IPOHE); assay: Further testing, pre-emergence application
Method: as §1

[7] = tested on: Lolium perenne (LOLPE); assay: Further testing, post-emergence application
Method: as §1

[8] = tested on: Echinochloa crus-galli (ECHCG); assay: Further testing, post-emergence application
Method: as §1

[9] = tested on: Setaria faberi (SETFA); assay: Further testing, post-emergence application
Method: as §1

[10] = tested on: Solanum nigrum (SOLNI); assay: Further testing, post-emergence application
Method: as §1

[11] = tested on: Amaranthus retoflexus (AMARE); assay: Further testing, post-emergence application
Method: as §1

[12] = tested on: Ipomoea hederacea (IPOHE); assay: Further testing, post-emergence application
Method: as §1

Structure (SMILES) | percentage damage caused to the plant, five point scale [1] | percentage damage caused to the plant, five point scale [2] | percentage damage caused to the plant, five point scale [3] | percentage damage caused to the plant, five point scale [4] | percentage damage caused to the plant, five point scale [5] | percentage damage caused to the plant, five point scale [6] | percentage damage caused to the plant, five point scale [7] | percentage damage caused to the plant, five point scale [8] | percentage damage caused to the plant, five point scale [9] | percentage damage caused to the plant, five point scale [10] | percentage damage caused to the plant, five point scale [11] | percentage damage caused to the plant, five point scale [12]
Cn1nnnc1NC(=O)c1nn(C)c(=O)c(C2CCCC2)c1Cl [Compound 1.005] | 5 (5=80-100%) | 5 (5=80-100%) | 5 (5=80-100%) | 5 (5=80-100%) | 5 (5=80-100%) | 5 (5=80-100%) | 5 (5=80-100%) | 5 (5=80-100%) | 5 (5=80-100%) | 5 (5=80-100%) | 5 (5=80-100%) | 5 (5=80-100%)
CCn1nnnc1NC(=O)c1nn(C)c(=O)c(C2CCCCC2)c1Cl [Compound 1.002] | 5 (5=80-100%) | 5 (5=80-100%) | 5 (5=80-100%) | 5 (5=80-100%) | 5 (5=80-100%) | 5 (5=80-100%) | 5 (5=80-100%) | 5 (5=80-100%) | 5 (5=80-100%) | 5 (5=80-100%) | 5 (5=80-100%) | 5 (5=80-100%)
CCCn1nnnc1NC(=O)c1nn(C)c(=O)c(C2CCCC2)c1Cl [Compound 1.006] | 5 (5=80-100%) | 5 (5=80-100%) | 5 (5=80-100%) | 5 (5=80-100%) | 5 (5=80-100%) | 4 (4=60-79%) | 5 (5=80-100%) | 5 (5=80-100%) | 5 (5=80-100%) | 5 (5=80-100%) | 5 (5=80-100%) | 5 (5=80-100%)
Cn1nnnc1NC(=O)c1nn(C)c(=O)c(C2CCCCC2)c1Cl [Compound 1.030] | 5 (5=80-100%) | 5 (5=80-100%) | 5 (5=80-100%) | 5 (5=80-100%) | 5 (5=80-100%) | 2 (2=20-39%) | 5 (5=80-100%) | 5 (5=80-100%) | 5 (5=80-100%) | 5 (5=80-100%) | 5 (5=80-100%) | 4 (4=60-79%)
CCCn1nnnc1NC(=O)c1nn(C)c(=O)c(C2CCCCC2)c1Cl [Compound 1.003] | 5 (5=80-100%) | 5 (5=80-100%) | 5 (5=80-100%) | 5 (5=80-100%) | 5 (5=80-100%) | 5 (5=80-100%) | 4 (4=60-79%) | 5 (5=80-100%) | 5 (5=80-100%) | 5 (5=80-100%) | 5 (5=80-100%) | 5 (5=80-100%)
CC1CCC(c2c(Cl)c(C(=O)Nc3nnnn3C)nn(C)c2=O)CC1 (stereo not drawn) [Compound 1.022] | 5 (5=80-100%) | 5 (5=80-100%) | 5 (5=80-100%) | 5 (5=80-100%) | 5 (5=80-100%) | 5 (5=80-100%) | 5 (5=80-100%) | 5 (5=80-100%) | 5 (5=80-100%) | 5 (5=80-100%) | 5 (5=80-100%) | 5 (5=80-100%)
Cn1nnnc1NC(=O)c1nn(C)c(=O)c(C2CCCCC2)c1Cl [Compound 1.031] | 3 (3=40-59%) | 5 (5=80-100%) | 4 (4=60-79%) | 5 (5=80-100%) | 5 (5=80-100%) | 4 (4=60-79%) | 4 (4=60-79%) | 4 (4=60-79%) | 5 (5=80-100%) | 5 (5=80-100%) | 5 (5=80-100%) | 4 (4=60-79%)
Cn1nnnc1NC(=O)c1nn(C)c(=O)c(C2CCC(C)(C)CC2)c1Cl [Compound 1.017] | 5 (5=80-100%) | 5 (5=80-100%) | 5 (5=80-100%) | 5 (5=80-100%) | 5 (5=80-100%) | 4 (4=60-79%) | 5 (5=80-100%) | 5 (5=80-100%) | 5 (5=80-100%) | 5 (5=80-100%) | 5 (5=80-100%) | 5 (5=80-100%)

Source: patent publication US10512268B2, “Herbicidal compounds” (Syngenta Participations AG, priority 2015, dated 2019)
